Measurements reported in ChEMBL document CHEMBL1201862, “PubChem BioAssay data set” (2004).
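Dose response: 5 concentrations. Exposure: 48 h. Format: 96-well plates. Endpoint: linear interpolation; highest concentration if not reached. Abbreviation: GI50, concentration required for 50% inhibition of growth.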 Calls of active or inactive are those of the source. Cut-off read from the data, not from the text of the source: active = GI50 up to about 1.1 µM and inactive = higher.

How the values were obtained:
Assay in all cases: NCI tumour cell line growth inhibition, 48 h
[1] = tested on: IGROV-1
[2] = tested on: KM-20L2
[3] = tested on: MCF7
[4] = tested on: UO-31
[5] = tested on: OVCAR-8
[6] = tested on: SW-620
[7] = tested on: K562
[8] = tested on: CCRF-CEM
[9] = tested on: NCI-H226
[10] = tested on: SF-268
[11] = tested on: DLD-1
[12] = tested on: SF-539
[13] = tested on: XF498
[14] = tested on: HOP-92
[15] = tested on: SNB-75
[16] = tested on: NCI-H23
[17] = tested on: SN12C
[18] = tested on: LOX IMVI
[19] = tested on: HCT-15
[20] = tested on: LXFL 529
[21] = tested on: SK-MEL-2
[22] = tested on: A549
[23] = tested on: NCI-H522
[24] = tested on: RXF 393
[25] = tested on: OVCAR-5
[26] = tested on: Malme-3M
[27] = tested on: MDA-MB-231
[28] = tested on: OVCAR-4
[29] = tested on: DMS-114
[30] = tested on: OVCAR-3
[31] = tested on: T47D
[32] = tested on: U-251
[33] = tested on: UACC-257
[34] = tested on: HOP-62
[35] = tested on: NCI-H460
[36] = tested on: HT-29
[37] = tested on: CAKI-1
[38] = tested on: M14
[39] = tested on: MDA-MB-435
[40] = tested on: NCI/ADR-RES
[41] = tested on: SNB-19
[42] = tested on: RPMI-8226
[43] = tested on: HCC 2998
[44] = tested on: HL-60
[45] = tested on: 786-0
[46] = tested on: SK-MEL-28
[47] = tested on: SK-OV-3
[48] = tested on: PC-3
[49] = tested on: UACC-62
[50] = tested on: EKVX
[51] = tested on: SR
[52] = tested on: MDA-N
[53] = tested on: SNB-78
[54] = tested on: Hs-578T
[55] = tested on: BT-549
[56] = tested on: MOLT-4
[57] = tested on: HCT-116
[58] = tested on: DMS-273
[59] = tested on: DU-145
[60] = tested on: SF-295
[61] = tested on: M19-MEL
[62] = tested on: KM12
[63] = tested on: SK-MEL-5
[64] = tested on: A498
[65] = tested on: ACHN
[66] = tested on: TK-10
[67] = tested on: COLO 205
[68] = tested on: HOP-18

Q: What does the source list for `C[N+](C)(C)CC1CCc2ccccc2C1=O` (centres undefined)?
A: GI50 [1]: 11.6 µM (inactive); GI50 [2]: 19.6 µM (inactive); GI50 [3]: 1.64 µM (inactive); GI50 [4]: 18.3 µM (inactive); GI50 [5]: 17.1 µM (inactive); GI50 [6]: 1.68 µM (inactive); GI50 [7]: 1.79 µM (inactive); GI50 [8]: 2.55 µM (inactive); GI50 [9]: 24.2 µM (inactive); GI50 [10]: 17.3 µM (inactive); GI50 [11]: 4.86 µM (inactive); GI50 [12]: 15.8 µM (inactive); GI50 [13]: 2.39 µM (inactive); GI50 [14]: 7.35 µM (inactive); GI50 [15]: 16.7 µM (inactive); GI50 [16]: 13.3 µM (inactive); GI50 [17]: 8.43 µM (inactive); GI50 [18]: 18.7 µM (inactive); GI50 [19]: 3.04 µM; GI50 [20]: 2.57 µM (inactive); GI50 [21]: 16.7 µM (inactive); GI50 [22]: 26.3 µM (inactive); GI50 [23]: 0.0809 µM (active); GI50 [24]: 14.2 µM (inactive); GI50 [25]: 16.1 µM (inactive); GI50 [26]: 1.8 µM (inactive); GI50 [27]: 7.13 µM (inactive); GI50 [28]: 4.75 µM (inactive); GI50 [29]: 13.5 µM (inactive); GI50 [30]: 4.49 µM (inactive); GI50 [31]: 6.53 µM (inactive); GI50 [32]: 5.64 µM (inactive); GI50 [33]: 12.2 µM (inactive); GI50 [34]: 26.4 µM (inactive); GI50 [35]: 19.7 µM (inactive); GI50 [36]: 6.03 µM (inactive); GI50 [37]: 4.97 µM (inactive); GI50 [38]: 5.87 µM (inactive); GI50 [39]: 5.62 µM (inactive); GI50 [40]: 10.6 µM (inactive); GI50 [41]: 15.1 µM (inactive); GI50 [42]: 1.43 µM (inactive); GI50 [43]: 15.3 µM (inactive); GI50 [44]: 2.52 µM (inactive); GI50 [45]: 6.46 µM (inactive); GI50 [46]: 8.89 µM (inactive); GI50 [47]: 18.6 µM (inactive); GI50 [48]: 15.5 µM (inactive); GI50 [49]: 5.42 µM (inactive); GI50 [50]: 7.76 µM (inactive); GI50 [51]: 1.79 µM (inactive); GI50 [52]: 5.86 µM (inactive); GI50 [53]: 23.4 µM (inactive); GI50 [54]: 13.7 µM (inactive); GI50 [55]: 15.5 µM (inactive); GI50 [56]: 2.32 µM (inactive); GI50 [57]: 5.55 µM (inactive); GI50 [58]: 2.16 µM (inactive); GI50 [59]: 18.6 µM (inactive); GI50 [60]: 34.1 µM (inactive); GI50 [61]: 16 µM (inactive); GI50 [62]: 10.8 µM (inactive); GI50 [63]: 16.2 µM (inactive); GI50 [64]: 26.2 µM (inactive); GI50 [65]: 7.55 µM (inactive); GI50 [66]: 16.1 µM (inactive); GI50 [67]: 7.55 µM (inactive)

Q: With `CC1(C)CCc2cc3c(cc2O1)OC(C)(C)C1c2c(ccc4c2CCC(C)(C)O4)OC31` (centres undefined) as the molecule, how does the GI50 [1] read?
A: > 100 µM (inactive)

Q: And the GI50 [4]?
A: > 100 µM (inactive)

Q: And the GI50 [5]?
A: > 100 µM (inactive)

Q: And the GI50 [6]?
A: > 100 µM (inactive)

Q: And the GI50 [7]?
A: > 100 µM (inactive)

Q: What about the GI50 [8] of the same molecule?
A: > 100 µM (inactive)

Q: And the GI50 [9]?
A: > 100 µM (inactive)

Q: And the GI50 [10]?
A: > 100 µM (inactive)

Q: And the GI50 [11]?
A: > 100 µM (inactive)

Q: What about the GI50 [12] of the same molecule?
A: > 100 µM (inactive)

Q: What about the GI50 [13] of the same molecule?
A: > 100 µM (inactive)

Q: And the GI50 [14]?
A: > 100 µM (inactive)

Q: What about the GI50 [16] of the same molecule?
A: > 100 µM (inactive)

Q: What about the GI50 [17] of the same molecule?
A: > 100 µM (inactive)

Q: And the GI50 [18]?
A: > 100 µM (inactive)

Q: What about the GI50 [19] of the same molecule?
A: > 100 µM

Q: And the GI50 [20]?
A: > 100 µM (inactive)

Q: And the GI50 [21]?
A: > 100 µM (inactive)

Q: What about the GI50 [68] of the same molecule?
A: < 0.01 µM (active)

Q: And the GI50 [22]?
A: > 100 µM (inactive)

Q: What about the GI50 [23] of the same molecule?
A: > 100 µM (inactive)

Q: And the GI50 [25]?
A: 68.4 µM (inactive)

Q: And the GI50 [28]?
A: > 100 µM (inactive)

Q: What about the GI50 [29] of the same molecule?
A: 98.4 µM (inactive)

Q: And the GI50 [30]?
A: 78.3 µM (inactive)

Q: What about the GI50 [32] of the same molecule?
A: > 100 µM (inactive)

Q: What about the GI50 [34] of the same molecule?
A: > 100 µM (inactive)

Q: And the GI50 [35]?
A: > 100 µM (inactive)

Q: What about the GI50 [36] of the same molecule?
A: > 100 µM (inactive)

Q: What about the GI50 [37] of the same molecule?
A: 99.8 µM (inactive)

Q: And the GI50 [38]?
A: 42.9 µM (inactive)

Q: And the GI50 [42]?
A: > 100 µM (inactive)

Q: What about the GI50 [44] of the same molecule?
A: 51.1 µM (inactive)

Q: And the GI50 [45]?
A: > 100 µM (inactive)

Q: And the GI50 [47]?
A: > 100 µM (inactive)

Q: And the GI50 [49]?
A: > 100 µM (inactive)

Q: And the GI50 [50]?
A: 64.6 µM (inactive)

Q: And the GI50 [51]?
A: > 100 µM (inactive)

Q: And the GI50 [53]?
A: > 100 µM (inactive)

Q: And the GI50 [56]?
A: > 100 µM (inactive)

Q: And the GI50 [57]?
A: > 100 µM (inactive)

Q: What about the GI50 [58] of the same molecule?
A: > 100 µM (inactive)

Q: What about the GI50 [60] of the same molecule?
A: > 100 µM (inactive)

Q: What about the GI50 [61] of the same molecule?
A: > 100 µM (inactive)

Q: What about the GI50 [62] of the same molecule?
A: > 100 µM (inactive)

Q: And the GI50 [63]?
A: > 100 µM (inactive)

Q: And the GI50 [65]?
A: > 100 µM (inactive)

Q: What about the GI50 [67] of the same molecule?
A: > 100 µM (inactive)

Q: How did the GI50 [1] turn out when `O=C1Nc2ccc(Br)cc2/C1=N/Nc1ccc([N+](=O)[O-])cc1[N+](=O)[O-]` was run?
A: 7.74 µM (inactive)

Q: What about the GI50 [2] of the same molecule?
A: 3.14 µM (inactive)

Q: What about the GI50 [4] of the same molecule?
A: 2.48 µM (inactive)

Q: What about the GI50 [5] of the same molecule?
A: 3.93 µM (inactive)

Q: What about the GI50 [6] of the same molecule?
A: 3.18 µM (inactive)

Q: And the GI50 [7]?
A: 3.05 µM (inactive)

Q: And the GI50 [8]?
A: 3.02 µM (inactive)

Q: And the GI50 [10]?
A: 4.33 µM (inactive)

Q: What about the GI50 [11] of the same molecule?
A: 4.58 µM (inactive)

Q: And the GI50 [14]?
A: 1.98 µM (inactive)

Q: And the GI50 [15]?
A: 4.1 µM (inactive)

Q: What about the GI50 [16] of the same molecule?
A: 2.49 µM (inactive)

Q: What about the GI50 [17] of the same molecule?
A: 3.04 µM (inactive)

Q: What about the GI50 [18] of the same molecule?
A: 1.73 µM (inactive)

Q: And the GI50 [19]?
A: 3.12 µM

Q: What about the GI50 [20] of the same molecule?
A: 3.66 µM (inactive)

Q: And the GI50 [21]?
A: 2.13 µM (inactive)

Q: And the GI50 [68]?
A: 1.12 µM (inactive)

Q: And the GI50 [22]?
A: 5.47 µM (inactive)

Q: And the GI50 [23]?
A: 2.42 µM (inactive)

Q: And the GI50 [24]?
A: 4.15 µM (inactive)

Q: What about the GI50 [26] of the same molecule?
A: 3.08 µM (inactive)

Q: What about the GI50 [30] of the same molecule?
A: 5.82 µM (inactive)

Q: And the GI50 [32]?
A: 4.22 µM (inactive)

Q: What about the GI50 [33] of the same molecule?
A: 3.89 µM (inactive)

Q: What about the GI50 [34] of the same molecule?
A: 5.7 µM (inactive)

Q: And the GI50 [36]?
A: 3.78 µM (inactive)

Q: And the GI50 [37]?
A: 13.9 µM (inactive)

Q: And the GI50 [38]?
A: 4.8 µM (inactive)

Q: What about the GI50 [41] of the same molecule?
A: 4.71 µM (inactive)

Q: And the GI50 [42]?
A: 2.81 µM (inactive)

Q: What about the GI50 [43] of the same molecule?
A: 10.2 µM (inactive)

Q: And the GI50 [44]?
A: 1.92 µM (inactive)

Q: What about the GI50 [45] of the same molecule?
A: 2.77 µM (inactive)

Q: And the GI50 [46]?
A: 3.33 µM (inactive)

Q: What about the GI50 [47] of the same molecule?
A: 12.5 µM (inactive)

Q: And the GI50 [49]?
A: 3.85 µM (inactive)

Q: What about the GI50 [50] of the same molecule?
A: 11.3 µM (inactive)

Q: What about the GI50 [51] of the same molecule?
A: 2.86 µM (inactive)

Q: And the GI50 [53]?
A: 4.51 µM (inactive)

Q: What about the GI50 [56] of the same molecule?
A: 3.44 µM (inactive)

Q: And the GI50 [57]?
A: 1.55 µM (inactive)

Q: And the GI50 [60]?
A: 3.91 µM (inactive)

Q: What about the GI50 [61] of the same molecule?
A: 3.54 µM (inactive)

Q: And the GI50 [62]?
A: 4.13 µM (inactive)

Q: What about the GI50 [63] of the same molecule?
A: 1.83 µM (inactive)

Q: What about the GI50 [65] of the same molecule?
A: 2.82 µM (inactive)

Q: What about the GI50 [66] of the same molecule?
A: 17.1 µM (inactive)

Q: What about the GI50 [67] of the same molecule?
A: 2.47 µM (inactive)
